Reference: paper PMC11947619, “Molecular mechanism of Mad2 conformational conversion promoted by the Mad2‐interaction motif of Cdc20” (Protein Science : A Publication of the Protein Society, 2025)
Residues, ends and D or L forms follow the SMILES beside them.

Target: T1, O‐Mad2^∆C10 (Homo sapiens, UniProt Q13257)
T1 construct: His6-DoubleStrep-TEV (N); made in house
Test: NMR titration / HSQC: Cdc20^MIM with O-Mad2^∆C10 (trapped open state)
Format: binding
Settings: 25°C; for binding to Mad2^∆C10: NMR titration / HSQC, two-fold molar excess of peptide, spectra within 15 minutes (Figure S6)
Source text: The cloning of human wild‐type Mad2 and the mutant Mad2^R133A by the USER® method (NEB) into the pRSFDuet‐1 vector (71341‐3, Sigma‐Aldrich) with a His6‐DoubleStrep‐TEV tag at its N‐terminus was described previously (Fischer et al., [2022]). For this study, Mad2 mutants were generated as follows. The Mad2^LL expression construct was generated from the wild‐type Mad2 expression vector (Fischer et al., [2022]) by replacing residues 109–117 (TAKDDSAPR) with GSG. Mad2^ΔC10 and Mad2^Δβ7/β8 were modified from wild‐type Mad2 expression construct by deleting residues 196–205 and 166–205, respectively. Mad2^LL/R133A was modified by substituting Ala for Arg133 from the Mad2^LL expression construct. Mad2^LL/ΔC10 was modified from Mad2^LL by deleting residues 196–205. Mad2^L13A/R133A was generated from the Mad2^R133A mutant. Site‐directed mutagenesis of Mad2 was completed using the QuikChangeTM Lightning Site‐Directed Mutagenesis Kit (Agilent) developed by Stratagene Inc. (La Jolla, CA).
All NMR data on Mad2 were acquired in a 5 mm tube at 25°C in 20 mM HEPES, pH 7.0, 100 mM NaCl, 1 mM TCEP, 5% D2O. Backbone assignment experiments and all spectra, unless otherwise denoted, were collected using an in‐house Bruker 800 MHz Avance III spectrometer, equipped with a triple resonance TCI CryoProbe. 2D spectra were acquired using BEST ^1H,^15N‐TROSY HSQC, with 16 scans and a recycle delay of 400 ms, giving an experimental time of 12 min per spectrum. A Bruker 950 MHz Avance III spectrometer (MRC Biomedical NMR Centre, Francis Crick Institute) was used for the residue conversion rate analysis and the characterization of Mad2 dimers. Most experiments, including all backbone experiments, were acquired with 100 μM samples; the residue‐specific conversion rate analysis and characterization of Mad2 dimers utilized 200 μM samples and 300 μM samples, respectively.
Mad2LL (grey), Mad2∆C10 (green) and Mad2LL/∆C10 (purple). […] 15N{1H}‐ heteronuclear NOE were measured at 298 K. Regions that are highly dynamic are highlighted in yellow. e. […]

T1 sequence (Q13257 1-195): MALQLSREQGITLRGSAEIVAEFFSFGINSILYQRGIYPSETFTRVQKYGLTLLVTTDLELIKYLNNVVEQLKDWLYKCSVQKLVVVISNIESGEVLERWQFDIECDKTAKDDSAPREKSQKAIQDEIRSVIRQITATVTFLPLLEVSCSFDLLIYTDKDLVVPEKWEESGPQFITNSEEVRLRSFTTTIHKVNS

| Compound | binding to Mad2^∆C10 | O- to C-Mad2 conversion, in words (O-Mad2^∆C10 100 μM, two-fold molar excess peptide, 24 h time course) |
| --- | --- | --- |
| CC[C@H](C)[C@H](NC(=O)[C@H](CCCCN)NC(=O)[C@H](C)NC(=O)[C@H](CCC(=O)O)NC(=O)[C@H](CCC(=O)O)NC(=O)[C@@H](NC(=O)[C@H](CC(=O)O)NC(=O)[C@@H](N)Cc1ccccc1)C(C)C)C(=O)N[C@@H](CC(C)C)C(=O)N[C@@H](CCCNC(=N)N)C(=O)N[C@@H](CC(C)C)C(=O)N[C@@H](CO)C(=O)NCC(=O)N[C@@H](CCCCN)C(=O)N1CCC[C@H]1C(=O)N[C@@H](CCC(N)=O)C(=O)N[C@@H](CC(N)=O)C(=O)N[C@@H](C)C(=O)N1CCC[C@H]1C(=O)N[C@@H](CCC(=O)O)C(=O)NCC(=O)N[C@@H](Cc1ccc(O)cc1)C(=O)N[C@@H](CCC(N)=O)C(=O)N[C@@H](CC(N)=O)C(=O)N[C@@H](CCCNC(=N)N)C(=O)N[C@@H](CC(C)C)C(=O)N[C@@H](CCCCN)C(=O)N[C@H](C(=O)N[C@@H](CC(C)C)C(=O)N[C@@H](Cc1ccc(O)cc1)C(=O)O)C(C)C [Cdc20^MIM‐123‐152] (H-FDVEEAKILRLSGKPQNAPEGYQNRLKVLY-OH; N-terminus and C-terminus assumed) | No binding | – |
| EHQKAWALNLNGFDVEEAKILRLSGKPQ [Cdc20^MIM‐111‐138, Cdc20^MIM peptide spanning Cdc20 residues 111–138] | No binding | eliminated |
